Read-outs that look alike come from different tables or passages of the source.

A short description of data set [1]: Cell viability assay (calcein method). The class given is cell-based, human. To be noted: human, epidermal melanocytes. As for the experimental part: (§1) A set of indolyl compounds were purchased from SIGMA-ALDRICH as stocks of 10 mM in 100% DMSO. They were initially examined at 25 uM concentration in cell culture (Table 1) for their ability to reduce melanin content and then, at different doses (Table 2). Neonatal foreskin primary human epidermal melanocytes was sourced from Cascade Biologicals (labelled passage P0). Melanocytes were maintained in Medium 254CF (Cascade Cat. # M-254CF-500) supplemented with human melanocyte growth supplement (Cascade; Cat. # S-002-5), hereafter referred to as MGM. Cells were maintained at 37 °C in a humidified incubator with 5 % CO2 atmosphere. 50,000 cells were seeded in 24 well plate in MGM. After 24 hours, the cultures were treated with various concentrations of test materials and were left undisturbed for a further period of 72 hours. Comparative vehicle controls of 0.25 % (v/v) DMSO were also set up in parallel, simultaneously. At the end of the incubation period, the cell viability was determined using the calcein method. Briefly, cell culture spent media was removed and cells washed once with 0.4 ml of 1x PBS-Ca-Mg solution. […] Plates were covered with aluminium foil and incubated for 30 minutes at 37 °C in the regular CO2 incubator. […] Percentage Melanin content was calculated as the ratio between OD405nm value of any sample to that of DMSO reference sample.

The test system of data set [2] is Neonatal foreskin primary human epidermal melanocytes. The experiment in a line: Cell viability assay (calcein method). As to conditions: 72 hours. Format: cell-based. On the procedure: as §1
Data set [3] has the same test system. Briefly: Melanin content assay (OD405nm of cell lysate). Format: cell-based. As for the experimental part: A set of indolyl compounds were purchased from SIGMA-ALDRICH as stocks of 10 mM in 100% DMSO. They were initially examined at 25 uM concentration in cell culture (Table 1) for their ability to reduce melanin content and then, at different doses (Table 2). Neonatal foreskin primary human epidermal melanocytes was sourced from Cascade Biologicals (labelled passage P0). Melanocytes were maintained in Medium 254CF (Cascade Cat. # M-254CF-500) supplemented with human melanocyte growth supplement (Cascade; Cat. # S-002-5), hereafter referred to as MGM. Cells were maintained at 37 °C in a humidified incubator with 5 % CO2 atmosphere. 50,000 cells were seeded in 24 well plate in MGM. After 24 hours, the cultures were treated with various concentrations of test materials and were left undisturbed for a further period of 72 hours. Comparative vehicle controls of 0.25 % (v/v) DMSO were also set up in parallel, simultaneously. At the end of the incubation period, the cell viability was determined using the calcein method. […] Cells were lysed by resuspension and incubation (60 °C/one hour.). Then this lysate was transferred to a fresh 384-well plate and measured OD405nm in a TECAN M1000 plate reader (estimate of relative melanin content). […] Percentage Melanin content was calculated as the ratio between OD405nm value of any sample to that of DMSO reference sample.

The mark [4] stands for this setting: 3.125 µM, 72 hours, Table 2, fresh batch.
Setting [5] is: 6.25 µM, 72 hours, Table 2, fresh batch.
Where [6] appears, read: 12.5 µM, 72 hours, Table 2, fresh batch.
The mark [7] stands for this setting: 25 µM, 72 hours, Table 1, 100 = 0.25% DMSO, read-out: % Viability.
Setting [8] is: 50 µM, 72 hours, Table 2, fresh batch.
The mark [9] stands for this setting: 25 µM, 72 hours, Table 2, fresh batch.
Where [10] appears, read: Homo sapiens, Melanocyte, 72 h, 25 µM, 72 hours, Table 1, normalized melanin content, read-out: 100* (%Melanin/% Viability).
The mark [11] stands for this setting: Homo sapiens, Melanocyte, 72 h, 25 µM, 72 hours, Table 1, read-out: % reduction in Melanin.
Where [12] appears, read: Homo sapiens, Melanocyte, 72 h, 25 µM, 72 hours, Table 1, relative to DMSO, read-out: % Melanin.
The mark [13] stands for this setting: Homo sapiens, Melanocyte, 72 h, 25 µM, 72 hours, Table 2, fresh batch, read-out: 100* (% Melanin/%Viability).
The mark [14] stands for this setting: Homo sapiens, Melanocyte, 72 h, 25 µM, 72 hours, Table 2, fresh batch, read-out: % Melanin.
The mark [15] stands for this setting: Homo sapiens, Melanocyte, 72 h, 25 µM, 72 hours, Table 2, fresh batch, read-out: % reduction in Melanin.

On to `CC(Cc1c[nH]c2ccccc12)NC(=O)OCCCl` (stereo not shown) [Compound #1, 2-chloroethyl [2-(1H-indol-3-yl)-1-methylethyl] carbamate], for which, in data set [1] (setting [4]), the viability – broadly, a read-out of living cells in per cent, often relative to untreated cells – at 72 h, 3.125 µM was 94%. In addition, the viability at 72 h, 6.25 µM in data set [1] (setting [5]) was 96.6%. Moreover, the viability at 72 h, 12.5 µM in data set [1] (setting [6]) was 93.4%. In addition, the viability at 72 h, 25 µM in data set [1] (setting [7]) was 95%; in data set [1] (25 µM, 72 hours, Table 2, fresh batch, read-out: % Viability) it was 93.7%. Moreover, the viability at 72 h, 50 µM in data set [1] (setting [8]) is 88.3%. The “Calcein Fluorescence” value in data set [2] (3.125 µM, Table 2, fresh batch) is listed as 94 arbitrary units; in data set [2] (6.25 µM, Table 2, fresh batch), 96.6 arbitrary units; in data set [2] (12.5 µM, Table 2, fresh batch), 93.4 arbitrary units; in data set [2] (25 µM, Table 1), 95 arbitrary unit; in data set [2] (25 µM, Table 2, fresh batch of melanocytes) it was 93.7 arbitrary units; in data set [2] (50 µM, Table 2, fresh batch) it was 88.3 arbitrary units. Besides, in data set [3] (setting [4]), the “% reduction in Melanin” value was “Nil”. The “OD405nm (Melanin)” value is listed as 0.168 in data set [3] (setting [4]); 0.146 in data set [3] (setting [5]); 0.134 in data set [3] (setting [6]); 0.093 in data set [3] (25 µM, 72 hours, Table 1); 0.122 in data set [3] (setting [9]); 0.103 in data set [3] (setting [8]). The “melanin reduction (in words)” value in data set [3] (25 µM, Table 1) was “significant melanin reduction”. In addition, the activity at 3.125 µM stood at 102% in data set [3] (Homo sapiens, Melanocyte, 72 h, 3.125 µM, 72 hours, Table 2, fresh batch, read-out: 100* (% Melanin/%Viability)) and 96% in data set [3] (Homo sapiens, Melanocyte, 72 h, 3.125 µM, 72 hours, Table 2, fresh batch, read-out: % Melanin). Moreover, the activity at 6.25 µM in data set [3] (Homo sapiens, Melanocyte, 72 h, 6.25 µM, 72 hours, Table 2, fresh batch, read-out: 100* (% Melanin/%Viability)) stood at 85.9%; in data set [3] (Homo sapiens, Melanocyte, 72 h, 6.25 µM, 72 hours, Table 2, fresh batch, read-out: % Melanin), 83%. In data set [3] (Homo sapiens, Melanocyte, 72 h, 6.25 µM, 72 hours, Table 2, fresh batch, read-out: % reduction in Melanin), the inhibition at 6.25 µM came out at 14.1%. Also, the activity at 12.5 µM in data set [3] (Homo sapiens, Melanocyte, 72 h, 12.5 µM, 72 hours, Table 2, fresh batch, read-out: 100* (% Melanin/%Viability)) was 82.4%; in data set [3] (Homo sapiens, Melanocyte, 72 h, 12.5 µM, 72 hours, Table 2, fresh batch, read-out: % Melanin), 77%. Further, the inhibition at 12.5 µM in data set [3] (Homo sapiens, Melanocyte, 72 h, 12.5 µM, 72 hours, Table 2, fresh batch, read-out: % reduction in Melanin) amounted to 17.6%. Further, the activity at 25 µM in data set [3] (setting [10]) was found to be 87%; in data set [3] (setting [12]) it was 83%; in data set [3] (setting [13]), 74.7%; in data set [3] (setting [14]), 70%. Also, the inhibition at 25 µM in data set [3] (setting [11]) was 13%; in data set [3] (setting [15]) it was 25.3%. The activity at 50 µM in data set [3] (Homo sapiens, Melanocyte, 72 h, 50 µM, 72 hours, Table 2, fresh batch, read-out: 100* (% Melanin/%Viability)) was determined as 66.8%; in data set [3] (Homo sapiens, Melanocyte, 72 h, 50 µM, 72 hours, Table 2, fresh batch, read-out: % Melanin), 59%. In data set [3] (Homo sapiens, Melanocyte, 72 h, 50 µM, 72 hours, Table 2, fresh batch, read-out: % reduction in Melanin), the inhibition at 50 µM turned out to be 33.2%. Moreover, in data set [3] (various doses, Table 2), the “efficacy compared to Kojic acid (in words)” value is reported as “more efficacious at concentrations much lower than Kojic acid”.

As for `CC(=O)NC(C)Cc1c[nH]c2ccccc12` (stereo not shown) [Compound #2, N-[2-(1H-indol-3-yl)-1-methylethyl]acetamide, reference compound], the viability at 72 h, 25 µM in data set [1] (setting [7]) is 98%. Further, the “Calcein Fluorescence” value in data set [2] (25 µM, Table 1) is recorded as 98 arbitrary unit. Besides, the “OD405nm (Melanin)” value in data set [3] (25 µM, 72 hours, Table 1) is 0.108. For the same molecule, the “melanin reduction (in words)” value in data set [3] (25 µM, Table 1) was “comparatively insignificant”. The values for the activity at 25 µM in data set [3] (setting [10]) and in data set [3] (setting [12]) were 98% and 96%, respectively. For the same molecule, the inhibition at 25 µM in data set [3] (setting [11]) came to 2%.

As to `CC(=O)O.CC(Cc1c[nH]c2ccccc12)NC(=O)CN` (stereo not shown) [Compound #3, 2-amino-N-[2-(1H-indol-3-yl)-1-methylethyl]acetamide acetate], the viability at 72 h, 25 µM in data set [1] (setting [7]) is 111%. The “Calcein Fluorescence” value in data set [2] (25 µM, Table 1) is 111 arbitrary unit. For the same molecule, the “OD405nm (Melanin)” value in data set [3] (25 µM, 72 hours, Table 1) is 0.111. Moreover, the “melanin reduction (in words)” value in data set [3] (25 µM, Table 1) is “significant melanin reduction”. For the same molecule, the activity at 25 µM in data set [3] (setting [10]) turned out to be 89%; in data set [3] (setting [12]), 99%. Besides, the inhibition at 25 µM in data set [3] (setting [11]) was determined as 11%.

`O=c1cc(CO)occ1O` [Kojic acid, reference compound]: the viability at 72 h, 25 µM in data set [1] (% Viability) is 102%. Also, in data set [1] (% Viability), the viability at 72 h, 250 µM is 96%. Moreover, the viability at 72 h, 500 µM in data set [1] (% Viability) is 96%. Further, the “OD405nm (Melanin)” value came to 0.177 in data set [3] (setting [9]); 0.152 in data set [3] (250 µM, 72 hours, Table 2, fresh batch); 0.139 in data set [3] (500 µM, 72 hours, Table 2, fresh batch). Further, the activity at 25 µM in data set [3] (setting [13]) stood at 99.3%; in data set [3] (setting [14]), 101%. Moreover, the inhibition at 25 µM in data set [3] (setting [15]) was 0.7%. Moreover, the activity at 250 µM in data set [3] (Homo sapiens, Melanocyte, 72 h, 250 µM, 72 hours, Table 2, fresh batch, read-out: 100* (% Melanin/%Viability)) stood at 90.4%; in data set [3] (Homo sapiens, Melanocyte, 72 h, 250 µM, 72 hours, Table 2, fresh batch, read-out: % Melanin) it was 87%. Besides, the inhibition at 250 µM in data set [3] (Homo sapiens, Melanocyte, 72 h, 250 µM, 72 hours, Table 2, fresh batch, read-out: % reduction in Melanin) worked out at 9.6%. Moreover, the activity at 500 µM in data set [3] (Homo sapiens, Melanocyte, 72 h, 500 µM, 72 hours, Table 2, fresh batch, read-out: 100* (% Melanin/%Viability)) stood at 83.3%; in data set [3] (Homo sapiens, Melanocyte, 72 h, 500 µM, 72 hours, Table 2, fresh batch, read-out: % Melanin) it was 80%. The inhibition at 500 µM in data set [3] (Homo sapiens, Melanocyte, 72 h, 500 µM, 72 hours, Table 2, fresh batch, read-out: % reduction in Melanin) worked out at 16.7%.
